# Results reported in patent US6524800B2, “Exploiting genomics in the search for new drugs” (Affymetrix, Inc., priority 1997, dated 2003).
# Tests used:
# [1] = test system: drug-sensitized yeast strain; test: yeast growth inhibition; assay type: cell-based; conditions: Saccharomyces cerevisiae; strain with drug-sensitizing deletions (erg6, pdr5, snq2)
# [2] = test system: mRNA levels of nearly all yeast genes; test: transcript profiling with high-density oligonucleotide expression arrays; assay type: cell-based, S. cerevisiae
# Method: In addition to measuring the inhibitory effects of purine derivatives in kinase assays and assays of cell growth, their effects on the mRNA levels of nearly all yeast genes were determined with high-density oligonucleotide expression arrays (17, 18). These arrays (19, 20) make it possible to measure quantitatively and in parallel mRNA levels for a very large number of genes after any chemical, environmental, or genetic perturbation.
# Yeast cultures were grown to late logarithmic phase (15), treated with 25 μM concentrations of the inhibitors for 2 hours, after which cellular polyadenylated mRNA was isolated and converted to biotin-labeled complementary RNA (cRNA) (17, 18). The labeled cRNA was then hybridized to a set of four arrays containing more than 260,000 25-nucleotide oligomers (20).
# 15. […] Three cultures [110 ml, in yeast extract, peptone, and dextrose (YPD)] were inoculated with single colonies of YRP1 (MAT, erg6::LEU2, pdr5::TRP1, snq2::HIS6) and grown at 30° C. with constant agitation in a water bath incubator. When the cell density reached an optical density (OD) of 0.9 (at a wavelength of 600 nm), 27.5 μl of a 100 mM dimethyl sulfoxide (DMSO) stock solution of 52 or flavopiridol or DMSO alone was added. After 2 hours the cells were harvested by centrifugation and flash frozen with liquid nitrogen. For the temperature-sensitive cdc28 mutants, three cultures (75 ml, YPD) of AFS 199 (cdc28-13), AA104 (cdc28-4), and their isogenic background strain AFS34 (MATa, ade2-1, his3-11, leu2-3, trp1-1, ura3) were grown from single colonies to an OD of 0.9 (600 nm) and harvested as described. Frozen cells were stored at […]
# [3] = test system: yeast cells; test: yeast arrest morphology and FACS; assay type: cell-based
# Excerpt: 16. The diminished growth inhibitory activity of compound 52Me is unlikely to result from poorer bioavailability because a similar N6 methylation is observed to increase the in vivo potency of a related series of purine-based inhibitors. The residual growth inhibitory activity of 52Me likely reflects activity against other cellular targets.
# [4] = biological target: GSK3- (Homo sapiens, UniProt P49841); test: purified kinase assay, GSK3-; assay type: biochemical
# Excerpt: (§1) To examine the effects of a range of diverse substituents on the purine ring, we synthesized combinatorial libraries in which the 2, 6, and 9 positions could be varied starting with a 2-flouro-6-chloropurine framework. (FIG. 1A) (2,3). Substitution chemistry was used to install amines at the 2 and 6 positions, and a Mitsunobu reaction (4,5) was used to alkylate the N9 position of the purine core. The subsitution chemistry allows introduction of primary and secondary amines bearing a wide range of functional groups, whereas the Mitsunobu reaction tolerates primary and secondary alcohols lacking additional acidic hydrogens. Newly appended groups can be modified combinatorially in subsequent steps with a variety of chemistries including acylation, reductive amination, and Suzuki coupling reactions (6), During library synthesis, one position is held invariant to allow attachment to the solid support. Libraries are synthesized in a spatially separated format with either a pin apparatus (7) or polystyrene resin and screened for kinase inhibitors with a 96-well, solution-phase phosphorylation assay.
# [5] = biological target: Protein kinase C1 (Homo sapiens, UniProt P05771); test: purified kinase assay, Protein kinase C1 (Table 1 r16); assay type: biochemical
# Excerpt: as §1
# [6] = biological target: T1, Cdc28p (Saccharomyces cerevisiae, UniProt P00546); test: kinase assay in immunoprecipitates, Cdc28p; assay type: biochemical, yeast; conditions: immunoprecipitates
# T1 construct: made in house
# [7] = biological target: Casein kinase 1; test: purified kinase assay, Casein kinase 1; assay type: biochemical, human
# Excerpt: as §1
# [8] = biological target: Protein kinase C2 (Homo sapiens, UniProt P05771); test: purified kinase assay, Protein kinase C2 (Table 1 r17); assay type: biochemical
# Excerpt: as §1
# [9] = biological target: Protein kinase C (Homo sapiens, UniProt Q02156); test: purified kinase assay, Protein kinase C (Table 1 r20); assay type: biochemical; conditions: Table 1 r20, isoform symbol not given
# Excerpt: as §1
# [10] = biological target: T2, Pho85p (Saccharomyces cerevisiae, UniProt P17157); test: kinase assay in immunoprecipitates, Pho85p; assay type: biochemical, yeast; conditions: immunoprecipitates
# T2 construct: made in house
# [11] = test system: KM12 colon cancer cell line; test: NCI panel growth inhibition, KM12; assay type: cell-based, human
# [12] = biological target: Protein kinase C (Homo sapiens, UniProt Q05513); test: purified kinase assay, Protein kinase C (Table 1 r22); assay type: biochemical; conditions: Table 1 r22, isoform symbol not given
# Excerpt: as §1
# [13] = biological target: cdk2-cyclin A (Homo sapiens, UniProt P24941); test: purified kinase assay, cdk2-cyclin A; assay type: biochemical
# Excerpt: as §1
# [14] = biological target: cGMP-dependent protein kinase (Homo sapiens, UniProt Q13976); test: purified kinase assay, cGMP-dependent protein kinase; assay type: biochemical
# Excerpt: as §1
# [15] = biological target: cAMP-dependent protein kinase (Homo sapiens, UniProt P17612); test: purified kinase assay, cAMP-dependent protein kinase; assay type: biochemical
# Excerpt: as §1
# [16] = biological target: c-jun NH2-terminal kinase; test: purified kinase assay, c-jun NH2-terminal kinase; assay type: biochemical, human
# Excerpt: as §1
# [17] = biological target: erk1 (Homo sapiens, UniProt P27361); test: purified kinase assay, erk1; assay type: biochemical
# Excerpt: as §1
# [18] = biological target: Insulin-receptor tyrosine kinase (Homo sapiens, UniProt P06213); test: purified kinase assay, Insulin-receptor tyrosine kinase; assay type: biochemical
# Excerpt: as §1
# [19] = biological target: cdk4-cyclin D1 (Homo sapiens, UniProt P11802); test: purified kinase assay, cdk4-cyclin D1; assay type: biochemical
# Excerpt: as §1
# [20] = biological target: cdk5-p35 (Homo sapiens, UniProt Q00535); test: purified kinase assay, cdk5-p35; assay type: biochemical
# Excerpt: as §1
# [21] = biological target: Protein kinase C (Homo sapiens, UniProt P24723); test: purified kinase assay, Protein kinase C (Table 1 r21); assay type: biochemical; conditions: Table 1 r21, isoform symbol not given
# Excerpt: as §1
# [22] = test system: NCI panel of 60 human tumor cell lines; test: NCI panel growth inhibition; assay type: cell-based
# [23] = test system: NCI-H522 non-small cell lung cancer cell line; test: NCI panel growth inhibition, NCI-H522; assay type: cell-based, human
# [24] = biological target: Protein kinase C (Homo sapiens, UniProt P05129); test: purified kinase assay, Protein kinase C (Table 1 r18); assay type: biochemical; conditions: Table 1 r18, isoform symbol not given
# Excerpt: as §1
# [25] = biological target: cdk2-cyclin E (Homo sapiens, UniProt P24941); test: purified kinase assay, cdk2-cyclin E; assay type: biochemical
# Excerpt: as §1
# [26] = biological target: Protein kinase C (Homo sapiens, UniProt P17252); test: purified kinase assay, Protein kinase C (Table 1 r15); assay type: biochemical; conditions: Table 1 r15, isoform symbol not given
# Excerpt: as §1
# [27] = biological target: Protein kinase C (Homo sapiens, UniProt Q05655); test: purified kinase assay, Protein kinase C (Table 1 r19); assay type: biochemical; conditions: Table 1 r19, isoform symbol not given
# Excerpt: as §1
# [28] = yeast, inhibitor versus untreated
# Insulin-receptor tyrosine kinase, sequence (P06213 28-1382): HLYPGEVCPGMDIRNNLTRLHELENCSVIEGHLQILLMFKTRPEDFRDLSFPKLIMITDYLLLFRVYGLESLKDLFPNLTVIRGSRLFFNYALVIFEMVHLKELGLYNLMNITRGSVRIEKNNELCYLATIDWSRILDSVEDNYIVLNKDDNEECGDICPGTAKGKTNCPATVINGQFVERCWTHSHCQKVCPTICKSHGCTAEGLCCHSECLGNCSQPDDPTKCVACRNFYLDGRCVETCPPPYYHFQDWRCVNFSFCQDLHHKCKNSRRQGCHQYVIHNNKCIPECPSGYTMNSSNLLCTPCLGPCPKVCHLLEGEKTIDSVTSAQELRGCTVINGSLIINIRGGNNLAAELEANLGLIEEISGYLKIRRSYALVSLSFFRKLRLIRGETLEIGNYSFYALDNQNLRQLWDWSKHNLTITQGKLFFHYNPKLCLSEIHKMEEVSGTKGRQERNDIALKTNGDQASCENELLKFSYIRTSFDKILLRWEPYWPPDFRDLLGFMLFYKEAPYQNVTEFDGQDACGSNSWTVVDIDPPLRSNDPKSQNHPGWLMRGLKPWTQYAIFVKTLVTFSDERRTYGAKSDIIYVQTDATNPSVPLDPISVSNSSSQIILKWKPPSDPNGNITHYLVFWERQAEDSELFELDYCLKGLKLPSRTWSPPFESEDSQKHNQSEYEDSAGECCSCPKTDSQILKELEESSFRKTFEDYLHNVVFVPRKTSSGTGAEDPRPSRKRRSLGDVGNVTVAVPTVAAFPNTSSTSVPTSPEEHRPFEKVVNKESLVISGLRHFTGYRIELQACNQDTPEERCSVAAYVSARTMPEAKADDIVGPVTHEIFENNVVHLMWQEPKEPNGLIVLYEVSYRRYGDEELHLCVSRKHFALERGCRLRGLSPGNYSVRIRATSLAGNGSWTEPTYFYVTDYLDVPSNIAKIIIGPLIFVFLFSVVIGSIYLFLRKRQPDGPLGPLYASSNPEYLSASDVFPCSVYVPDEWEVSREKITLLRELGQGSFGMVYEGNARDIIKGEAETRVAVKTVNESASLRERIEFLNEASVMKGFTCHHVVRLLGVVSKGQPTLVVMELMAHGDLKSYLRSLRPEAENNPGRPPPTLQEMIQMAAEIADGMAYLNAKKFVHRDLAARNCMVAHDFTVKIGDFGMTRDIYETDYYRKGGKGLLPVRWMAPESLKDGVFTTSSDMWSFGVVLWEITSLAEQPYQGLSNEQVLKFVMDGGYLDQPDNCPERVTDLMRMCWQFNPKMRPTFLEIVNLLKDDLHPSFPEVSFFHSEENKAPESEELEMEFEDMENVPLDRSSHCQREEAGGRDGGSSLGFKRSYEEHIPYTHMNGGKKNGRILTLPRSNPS
# cGMP-dependent protein kinase, sequence (Q13976 whole entry): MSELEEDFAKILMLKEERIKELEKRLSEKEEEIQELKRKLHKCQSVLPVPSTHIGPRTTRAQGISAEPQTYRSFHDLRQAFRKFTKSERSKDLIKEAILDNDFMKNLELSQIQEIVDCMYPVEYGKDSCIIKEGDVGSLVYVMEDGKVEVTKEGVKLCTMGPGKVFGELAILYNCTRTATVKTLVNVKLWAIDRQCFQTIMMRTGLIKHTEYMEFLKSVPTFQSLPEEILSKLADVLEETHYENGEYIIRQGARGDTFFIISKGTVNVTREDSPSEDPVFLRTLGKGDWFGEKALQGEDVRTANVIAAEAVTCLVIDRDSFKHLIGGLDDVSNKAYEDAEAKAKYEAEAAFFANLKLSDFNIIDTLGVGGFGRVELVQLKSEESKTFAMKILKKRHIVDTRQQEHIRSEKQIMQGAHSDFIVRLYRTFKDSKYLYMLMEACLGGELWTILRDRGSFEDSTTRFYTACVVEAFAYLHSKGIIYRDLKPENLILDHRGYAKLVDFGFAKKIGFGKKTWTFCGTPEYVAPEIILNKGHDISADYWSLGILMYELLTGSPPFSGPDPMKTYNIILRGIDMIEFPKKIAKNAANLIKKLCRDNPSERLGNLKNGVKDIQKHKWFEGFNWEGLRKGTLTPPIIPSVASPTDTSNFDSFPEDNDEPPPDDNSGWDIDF
# T2 sequence (P17157 whole entry): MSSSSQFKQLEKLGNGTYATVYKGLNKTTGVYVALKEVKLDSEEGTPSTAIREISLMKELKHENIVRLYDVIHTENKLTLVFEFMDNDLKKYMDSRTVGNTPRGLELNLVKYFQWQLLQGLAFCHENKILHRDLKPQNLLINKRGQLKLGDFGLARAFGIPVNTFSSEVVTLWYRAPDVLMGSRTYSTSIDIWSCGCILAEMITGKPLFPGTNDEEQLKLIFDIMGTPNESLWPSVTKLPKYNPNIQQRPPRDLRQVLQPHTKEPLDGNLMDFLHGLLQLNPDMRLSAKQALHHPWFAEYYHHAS
# Protein kinase C (Homo sapiens, UniProt Q05655), sequence (Q05655 whole entry, canonical isoform): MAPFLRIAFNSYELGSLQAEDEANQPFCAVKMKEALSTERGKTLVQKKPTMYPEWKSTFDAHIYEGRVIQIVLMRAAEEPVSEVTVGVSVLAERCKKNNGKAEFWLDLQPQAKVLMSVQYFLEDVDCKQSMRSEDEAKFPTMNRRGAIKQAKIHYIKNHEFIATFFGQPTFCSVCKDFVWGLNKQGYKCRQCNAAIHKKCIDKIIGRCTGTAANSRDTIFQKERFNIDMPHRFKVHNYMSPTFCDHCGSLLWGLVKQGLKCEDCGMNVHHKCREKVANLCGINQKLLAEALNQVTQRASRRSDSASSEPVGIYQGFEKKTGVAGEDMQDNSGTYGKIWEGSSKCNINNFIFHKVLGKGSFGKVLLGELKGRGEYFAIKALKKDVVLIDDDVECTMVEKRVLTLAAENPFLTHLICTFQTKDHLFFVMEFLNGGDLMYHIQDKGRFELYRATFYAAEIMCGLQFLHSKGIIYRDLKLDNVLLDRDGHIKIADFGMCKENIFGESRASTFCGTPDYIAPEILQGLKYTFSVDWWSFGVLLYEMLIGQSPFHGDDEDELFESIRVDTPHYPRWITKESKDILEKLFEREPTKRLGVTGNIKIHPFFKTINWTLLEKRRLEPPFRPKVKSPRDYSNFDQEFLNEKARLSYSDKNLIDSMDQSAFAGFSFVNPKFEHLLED
# Protein kinase C (Homo sapiens, UniProt Q05513), sequence (Q05513 whole entry, canonical isoform): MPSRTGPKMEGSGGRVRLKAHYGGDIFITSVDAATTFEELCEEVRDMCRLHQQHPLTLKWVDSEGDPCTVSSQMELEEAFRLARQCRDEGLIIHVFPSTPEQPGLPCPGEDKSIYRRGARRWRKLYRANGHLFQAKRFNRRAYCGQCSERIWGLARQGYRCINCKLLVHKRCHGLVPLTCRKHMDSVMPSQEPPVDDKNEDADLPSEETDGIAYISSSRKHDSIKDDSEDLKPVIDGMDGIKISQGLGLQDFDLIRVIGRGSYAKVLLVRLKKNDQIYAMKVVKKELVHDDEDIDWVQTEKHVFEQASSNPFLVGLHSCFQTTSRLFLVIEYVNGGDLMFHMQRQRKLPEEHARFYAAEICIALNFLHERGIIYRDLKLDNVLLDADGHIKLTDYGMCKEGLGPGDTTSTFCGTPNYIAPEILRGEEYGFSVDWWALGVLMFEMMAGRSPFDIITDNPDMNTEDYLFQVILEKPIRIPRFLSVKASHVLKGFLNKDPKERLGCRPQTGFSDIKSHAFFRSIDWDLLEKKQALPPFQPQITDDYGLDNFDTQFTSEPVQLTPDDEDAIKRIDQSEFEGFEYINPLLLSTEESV
# Protein kinase C1, sequence (P05771 whole entry): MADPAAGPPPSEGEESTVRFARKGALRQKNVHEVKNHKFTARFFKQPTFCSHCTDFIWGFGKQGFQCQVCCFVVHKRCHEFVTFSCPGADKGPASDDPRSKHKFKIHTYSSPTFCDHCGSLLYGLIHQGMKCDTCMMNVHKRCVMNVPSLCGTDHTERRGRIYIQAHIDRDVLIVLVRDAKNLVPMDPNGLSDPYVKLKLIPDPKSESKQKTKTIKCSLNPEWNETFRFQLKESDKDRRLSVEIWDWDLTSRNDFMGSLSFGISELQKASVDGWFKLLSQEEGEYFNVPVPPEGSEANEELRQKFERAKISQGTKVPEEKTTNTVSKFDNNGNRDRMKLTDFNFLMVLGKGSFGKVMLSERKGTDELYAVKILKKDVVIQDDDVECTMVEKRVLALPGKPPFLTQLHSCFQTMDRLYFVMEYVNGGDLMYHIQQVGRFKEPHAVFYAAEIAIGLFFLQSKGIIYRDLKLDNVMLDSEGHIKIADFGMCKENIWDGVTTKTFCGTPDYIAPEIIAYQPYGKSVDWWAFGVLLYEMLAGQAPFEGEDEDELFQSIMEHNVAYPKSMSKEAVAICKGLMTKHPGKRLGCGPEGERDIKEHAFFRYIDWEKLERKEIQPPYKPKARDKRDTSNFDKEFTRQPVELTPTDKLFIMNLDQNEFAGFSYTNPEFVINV
compound,measurement,setting,value
"CN1CC[C@H](c2c(O)cc(O)c3c(=O)cc(-c4ccccc4Cl)oc23)[C@H](O)C1 [flavopiridol, reference compound]",GI50,[1],7 µM
same,% of transcripts with greater than twofold change,"[2]; 25 μM, 2 hours",2%
same,ribosomal protein transcripts decreased at least threefold,"[2]; 25 μM, 2 hours",no ribosomal protein transcript levels decreased more than threefold
same,number of genes with greater than twofold change in transcript level,"[2]; 25 μM, 2 hours, more than 6200 genes monitored",132
same,YCRX13W SOL2 transcript INCREASE,[2]; FLA UNIQUE,7.5-10 × INCREASE
same,Y13R214W transcript INCREASES,[2]; [28],7-8.5 × for FLA
same,YBL002W HTB2 transcript DECREASES,[2]; [28],˜2.7 × for FLA
same,YBR296C transcript change (in words),[2]; [28],VERY LARGE INCREASE (15-
same,YGLI79 transcript change (in words),[2]; [28],INCREASES C52 & FLA
same,YGR108W (CLB 1) transcript DECREASES,[2]; [28],˜2.5-3 fold with FLA)
same,YKRO97W PCK1 transcript INCREASES,[2]; [28],˜4 × with FLA fold
same,YLR178c (TFS1) transcript INCREASES,[2]; [28],INCREASES ˜6x
same,arrest morphology in yeast (in words),[3],failed to cause a uniform arrest morphology
CC(C)[C@H](CO)Nc1nc(Nc2cccc(Cl)c2)c2ncn(C(C)C)c2n1 [purvalanol A],IC50,[4],> 10 µM
same,IC50,[5],> 10 µM
same,inhibition of Cdc28p (in words),[6],inhibited
same,IC50,[7],> 3.33 µM
same,IC50,[8],> 10 µM
same,IC50,[9],> 100 µM
same,inhibition of Pho85p (in words),[10],inhibited
same,GI50,[11],0.076 µM
same,IC50,[12],> 100 µM
same,IC50,[13],0.07 µM
same,IC50,[14],> 10 µM
same,IC50,[15],9 µM
same,IC50,[16],> 1 µM
same,IC50,[17],9 µM
same,IC50,[18],5 µM
same,IC50,[19],0.85 µM
same,IC50,[20],0.075 µM
same,IC50,[21],> 100 µM
same,increase in sensitivity of two cell lines out of the 60,[22]; KM12 and NCI-H522 versus average GI50,~20 fold
same,GI50,"[22]; read-out: average GI50 (50% growth inhibition), average over 60 cell lines",2 µM
same,GI50,[23],0.347 µM
same,IC50,[24],> 10 µM
same,IC50,[25],0.035 µM
same,IC50,[26],> 10 µM
same,IC50,[27],> 100 µM
"CC(C)[C@H](CO)Nc1nc(Nc2ccc(C(=O)O)c(Cl)c2)c2ncn(C(C)C)c2n1 [purvalanol B, 2-(1R-isopropyl-2-hydroxyethylamino)-6-(3-chloro-4-carboxyanilino)-9-isopropylpurine]",IC50,[7],> 3.33 µM
same,IC50,[14],> 100 µM
same,IC50,[15],3.8 µM
same,IC50,[16],> 10 µM
same,IC50,[18],2.2 µM
